Legend:
[1] = cited from earlier work; for pK (first value): buffer/salt of Table 1
[2] = Vesicularisation time: sonication of a crude suspension until opalescent/transparent, followed by turbidity; type: physicochemical
Description: The term aggregate “adaptability” is herein closely related to “deformability” and can be measured using previously described methods (e.g. Wachter et al., 2008, J. Drug Targeting 16: 611). In principle, most of these methods assess the penetration of a nanoporous, semipermeable barrier by the tested aggregates in a suspension, presuming no significant aggregate fragmentation during penetration. In an alternative method, the kinetics of aggregate fragmentation under greater external stress is studied, e.g., during ultrasonication. An aggregate is considered to have an ultradeformable bilayer for purposes of the invention if its adaptability is close to or at about the highest value achievable without an appreciable, and normally spontaneous, aggregate fragmentation into smaller structures, e.g. micelles.
The term “vesicularisation time” refers to the time required to transform an originally opaque suspension (i.e. having an optical density >>3) to an opalescent/transparent suspension with a much lower optical density using external stress, e.g. generated with an ultrasound transducer, high-shear homogeniser (Ultra-Turrax®, IKA) or rotor-stator homogeniser. […]
A first consideration is that the chosen pH is far enough from the tested aggregate surface pKa,mem to exclude ionisation changes during a test; otherwise, experiments must be conducted at two or more constant, yet different, pH values and then analysed together allowing for the pH effects. […]
In a simpler and more qualitative alternative assay, one compares the test sample turbidity with an appropriate opalescent/transparent reference suspension turbidity. A series of readings taken for each representative sample at different times can likewise reveal temporal stability. Experimental data generated with this method confirmed the independency of the conclusions drawn from individual turbidity readouts for the preparations of the invention: within experimental error limits, the difference between the time required to generate more or less, but always similarly turbid suspension is generally the same. […]

[3] = Drug payload limit: terbinafine concentration at minimum vesicularisation time (FIG. 1 inset); type: physicochemical; conditions: for payload (concentration at minimum vesicularisation time): phosphatidylcholine vesicles + 5 wt.-% ethanol, azeleate buffer 0.05 M
Description: FIG. 1 is a schematic representation of experiments carried out to show an effect of buffer (ionic additive) selection on the vesicularisation time of reference (i.e. containing >90% pure soybean phosphatidylcholine) vesicles and of vesicles loaded with terbinafine as a function of the bulk pH. The results of an additional test series, in which an increasing amount of terbinafine was incorporated into phosphatidylcholine vesicles (at 10 wt-%-terbinafine concentration+5 wt.-% ethanol) dispersed in azeleate buffer (0.05 M) are shown in the Inset for pH=4.55±0.1 (diamonds) and pH=3.6±0.1 (down-arrow).

[4] = T=310 K, phospholipid plus drug ~10 w-%

Question: For `CCNCC` [Diethylamine], which pK1 ([1]; buffer of Table 4) is on record?
Answer: The pK1 was 10.6.

Question: Which results are given for `NCCCC[C@H](N)C(=O)O` [Lysine]?
Answer: pK1 ([1]; buffer of Table 4): 10.5; pK2 ([1]; buffer of Table 4): 9.1; pK3 ([1]; buffer of Table 4): 2.2

Question: With `c1c[nH]cn1` [Imidazole] as the molecule, how does the pK1 ([1]; buffer of Table 4) read?
Answer: Its pK1 is 14.5.

Question: And the pK2 ([1]; buffer of Table 4)?
Answer: The pK2 was 6.9.

Question: What about the “pK (first value)” value [1] of the same molecule?
Answer: The value was 6.9.

Question: Which pK1 ([1]; buffer of Table 4) does the source give for `O=C(O)CNC(CO)(CO)CO` [Tricine] here?
Answer: The pK1 was 8.2.

Question: What about the pK2 ([1]; buffer of Table 4) of the same molecule?
Answer: The pK2 was 2.3.

Question: Which pK1 ([1]; buffer of Table 4) does the source give for `OCCN(CCO)C(CO)(CO)CO` [Bis-TRIS] here?
Answer: The pK1 was 6.5.

Question: For `O=C(O)CCCCCCCC(=O)O` [azaleic acid, Azelaic acid], which “log P” value [1] is on record?
Answer: Its value is greater than 1.

Question: With `O=C1CC[C@@H](C(=O)O)N1` [Pyroglutamic acid (pidolic acid), Pyroglutamic acid] as the molecule, how does the “pK (first value)” value [1] read?
Answer: The value was 3.5.

Question: With `CC(=O)O` [Acetic acid] as the molecule, how does the “pK (first value)” value [1] read?
Answer: Its value is 4.8.

Question: With `O=S(=O)(O)CCN1CCN(CCO)CC1` [HEPES] as the molecule, how does the pK1 ([1]; buffer of Table 4) read?
Answer: The pK1 was 7.6.

Question: And the pK2 ([1]; buffer of Table 4)?
Answer: Its pK2 is 1.7.

Question: Which “pK (first value)” value [1] does the source give for `O=C(O)[C@H](O)[C@@H](O)[C@H](O)[C@H](O)CO` [Gluconic acid] here?
Answer: The value was 3.6.

Question: For `CN(C/C=C/C#CC(C)(C)C)Cc1cccc2ccccc12` [terbinafine], which vesicularisation time ([2]; 10 wt.-% total amphipat including 20 rel-% terbinafine, phosphate buffer, pH~4.4) is on record?
Answer: Its vesicularisation time is “exceeds 200 s”.

Question: What about the “sonication time (vesicularisation time)” value ([2]; terbinafine + phosphatidylcholine, 0.1 M phosphate buffer, pH=5.7, fails to produce small aggregates above the precipitate) of the same molecule?
Answer: Its value is “exceeding 1400 s”.

Question: And the “time needed to prepare drug-loaded aggregates” value ([2]; terbinafine + phosphatidylcholine, phosphate buffer, pH=5.2)?
Answer: Its value is “around 700 s”.

Question: What about the “payload limit (concentration at minimum vesicularisation time)” value ([3]; aggregate suspensions in phosphate buffer of comparable pH) of the same molecule?
Answer: The value was less than 10 wt.-%.

Question: What about the “higher payload in azeleate buffer compared with phosphate buffer” value ([3]; comparable pH) of the same molecule?
Answer: Its value is “at least 50%”.

Question: What about the “payload (concentration at minimum vesicularisation time)” value ([3]; pH=3.6) of the same molecule?
Answer: The value was roughly 20%.

Question: What about the “payload (concentration at minimum vesicularisation time)” value ([3]; pH=4.55) of the same molecule?
Answer: Its value is roughly 15%.

Question: What about the “de/protonation constant in a membrane, pKa,mem” value [1, 4] of the same molecule?
Answer: The value was 5.5.

Question: And the “de/protonation constant in the bulk, pK” value [1, 4]?
Answer: Its value is 7.05.

Question: What about the “water-membrane partition ratio, ionised drug form, log Pmem^I” value [1, 4] of the same molecule?
Answer: The value was 3.78.

Question: And the “water-membrane partition ratio, neutral drug form, log Pmem^N” value [1, 4]?
Answer: The value was 5.19.

Question: What does the source list for `O=C(c1ccccc1)c1ccc2n1CCC2C(=O)O` (stereo not drawn) [ketorolac, reference compound]?
Answer: log Pmem^I ([1]; best estimates): ~0.8; log Pmem^N ([1]; best estimates): ~2.3; pK ([1]; best estimates): 3.5; pKa,mem ([1]; best estimates): ~5.5

Question: With `Cc1ccc(S(=O)(=O)O)cc1` [p-Toluenesulfonic acid] as the molecule, how does the “pK (first value)” value [1] read?
Answer: Its value is 0.7.

Question: Which pK1 ([1]; buffer of Table 4) does the source give for `C[N+](C)(C)CCO.[Cl-]` [Choline, chloride] here?
Answer: The pK1 was 13.9.

Question: For `O=S(=O)(O)CCN1CCN(CCS(=O)(=O)O)CC1` [PIPES], which pK1 ([1]; buffer of Table 4) is on record?
Answer: The pK1 was 7.1.

Question: What about the pK2 ([1]; buffer of Table 4) of the same molecule?
Answer: Its pK2 is 0.4.

Question: With `Cl` [Hydrochloric acid, sodium, Hydrochloric acid] as the molecule, how does the “pK (first value)” value [1] read?
Answer: Its value is −9.3.

Question: Which pK1 ([1]; buffer of Table 4) does the source give for `O=C(O)CN(CCO)CCO` [Bicine] here?
Answer: The pK1 was 8.5.

Question: And the pK2 ([1]; buffer of Table 4)?
Answer: The pK2 was 1.9.

Question: With `OCCN1CCCC1` [1-Pyrrolidineethanol (epolamine), 1-Pyrrolidineethanol] as the molecule, how does the pK1 ([1]; buffer of Table 4) read?
Answer: Its pK1 is 9.8.

Question: What about the “pK (first value)” value [1] of the same molecule?
Answer: The value was 9.8.

Question: With `O=S(=O)(O)O` [Sulphuric acid] as the molecule, how does the pK1 ([1]; buffer of Table 4) read?
Answer: Its pK1 is −3.

Question: And the pK2 ([1]; buffer of Table 4)?
Answer: Its pK2 is 1.9.

Question: Which results are given for `OCCN1CCOCC1` [Morpholinoethanol]?
Answer: pK1 ([1]; buffer of Table 4): 7.4; pK (first value) [1]: 7.4

Question: With `[Na+].[OH-]` [Sodium hydroxyde, NaCl, Sodium hydroxyde] as the molecule, how does the “pK (first value)” value [1] read?
Answer: The value was 13.0.

Source: patent US20140017302A1, “OPTIMISED PREPARATIONS OF HIGHLY ADAPTABLE AGGREGATES” (priority 2011, published 2014)
